From ChEMBL document CHEMBL1201862, “PubChem BioAssay data set” (2004)
Calls of active or inactive are those of the source.

Columns and labels:
[1] = tested on: P388/ADR; assay: cells; type: functional; conditions: Mus musculus
[2] = tested on: SN12K1; assay: cells; type: functional; conditions: Homo sapiens
[3] = tested on: P388; assay: cells; type: functional; conditions: Mus musculus
[4] = blockers of HIV-1 envelope-mediated cell-cell fusion – cherry-pick, dose response (AID 652057); type: functional, cell-based
[5] = blockers of HIV-1 ZM109 envelope-driven cell-cell fusion – HeLa effector, CEM target cells, luciferase, cherry-pick, dose response (AID 652058); type: functional, cell-based;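 further: luciferase signal from HIV-1 Env mediated cell-cell fusion of effector and target cells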
[6] = off-target signal loss in HeLa-CEM21 co-culture – HeLa F-luc CTL cells, cherry-picked, counter-screen for HIV-1 Env fusion inhibitor project, dose response (AID 652040); type: functional, cell-based;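 further: potency for signal decrease marking cytotoxic or nonspecific inhibition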
[7] = HIV-1 AD8 envelope cell-cell fusion blockers – cherry-pick, dose response (AID 652062); type: functional, cell-based;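 further: luciferase signal from cell-cell fusion driven by HIV-1 clade B AD8 Env; potency is for inhibitors of fusion seen as a drop in luminescence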
[8] = target: T1, DNA repair protein RAD52 homolog (Homo sapiens, UniProt P43351); type: functional, biochemical
T1 sequence (P43351 whole entry): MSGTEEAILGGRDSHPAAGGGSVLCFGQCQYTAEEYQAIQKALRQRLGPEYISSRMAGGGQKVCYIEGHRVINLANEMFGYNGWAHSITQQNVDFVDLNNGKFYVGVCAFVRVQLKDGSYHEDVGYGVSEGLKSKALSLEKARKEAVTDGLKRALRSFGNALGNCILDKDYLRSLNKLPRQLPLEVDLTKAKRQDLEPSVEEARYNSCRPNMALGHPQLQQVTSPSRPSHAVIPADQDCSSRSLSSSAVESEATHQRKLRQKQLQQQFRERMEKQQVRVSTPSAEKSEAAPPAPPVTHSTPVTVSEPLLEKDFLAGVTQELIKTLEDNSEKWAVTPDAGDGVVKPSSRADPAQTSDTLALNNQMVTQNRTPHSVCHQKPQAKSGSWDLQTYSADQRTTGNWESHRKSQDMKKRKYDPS

[9] = cells; type: functional, cell-based
[10] = Trypanosoma cruzi growth suppression in host cells – NIH3T3 host cells, beta-gal luminescence, confirmation (AID 2044); type: functional, cell-based;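 further: intracellular parasites grown in NIH/3T3 mouse fibroblasts as host cells; luminescent beta-galactosidase reporter signal from transgenic T. cruzi replicating inside host cells; inhibitors lower the luminescence signal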
[11] = cells; type: functional, cell-based; remark: listed apart in the source
[12] = NIH3T3 cell viability loss – ATP luminescence, mouse fibroblasts, counter-screen, dose response (AID 2010); type: functional, cell-based;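 further: cells exposed to compound for about 90 hours before reading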
[13] = reduction of Shn3 3'UTR-driven luciferase in osteoblasts – cell-based, Clone20 osteoblasts, firefly luciferase, cherry-picked, dose response (AID 624132); type: functional;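 further: firefly luciferase luminescence from reporter carrying the Shn3 3'UTR in osteoblasts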
[14] = loss of viability in HepG2 cells – cell-based, CellTiter-Glo, cherry-picked, cytotoxicity control for Shn3 inhibitor project, dose response (AID 624134); type: functional
[15] = non-specific 3'UTR reporter inhibition in Clone20-Shn3RL – cell-based, Renilla luciferase, cherry-picked, counter-screen for Shn3 inhibitor project, dose response (AID 624133); type: functional
[16] = tested on: Streptococcus sp. 'group A'; assay: Streptococcus pyogenes SK(-)GAS viability under kanamycin – luminescence, BacTiterGlo, confirmation, counter-screen for streptokinase expression inhibitor project, dose response (AID 1900); type: functional, organism-based
[17] = target: T2, Streptokinase A (Streptococcus pyogenes serotype M1, UniProt P10520); assay: viability-normalized secreted streptokinase activity reduction – plasminogen activation absorbance, OD405, dose response (AID 1914); type: functional, Streptococcus pyogenes M1 GAS;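 further: secreted streptokinase activity via plasminogen activation per viability signal from cell pellet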
T2 sequence (P10520 whole entry): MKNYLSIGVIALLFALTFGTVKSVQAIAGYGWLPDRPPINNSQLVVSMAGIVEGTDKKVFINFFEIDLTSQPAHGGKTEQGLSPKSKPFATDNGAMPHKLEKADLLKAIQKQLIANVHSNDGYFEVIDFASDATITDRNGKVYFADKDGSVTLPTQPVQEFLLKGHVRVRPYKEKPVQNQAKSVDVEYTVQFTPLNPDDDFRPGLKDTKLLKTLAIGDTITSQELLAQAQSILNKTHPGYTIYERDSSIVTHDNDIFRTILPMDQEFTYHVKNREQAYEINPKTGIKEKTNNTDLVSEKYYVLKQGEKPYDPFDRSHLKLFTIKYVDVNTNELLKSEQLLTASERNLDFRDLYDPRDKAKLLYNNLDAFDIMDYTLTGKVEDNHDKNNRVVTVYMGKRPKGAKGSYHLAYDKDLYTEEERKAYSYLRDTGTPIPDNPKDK

[18] = tested on: Streptococcus; assay: GAS UMAA2166 growth inhibition – luminescence, BacTiterGlo, counter-screen for streptokinase expression inhibitor project, dose response (AID 1915); type: functional, organism-based;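 further: potency for reduction of bacterial viability or growth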
[19] = Luminescence Cell-Based Dose Retest to Confirm Inhibitors of Cancer Stem Cells. [Related pubchem assays (depositor defined):AID2717, AID2721]; type: functional; conditions: Homo sapiens
[20] = target: Cytochrome P450 2D6 (Homo sapiens, UniProt P10635);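 further: CYP2D6 member of a cytochrome P450 panel assay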
Cytochrome P450 2D6, sequence (P10635 whole entry): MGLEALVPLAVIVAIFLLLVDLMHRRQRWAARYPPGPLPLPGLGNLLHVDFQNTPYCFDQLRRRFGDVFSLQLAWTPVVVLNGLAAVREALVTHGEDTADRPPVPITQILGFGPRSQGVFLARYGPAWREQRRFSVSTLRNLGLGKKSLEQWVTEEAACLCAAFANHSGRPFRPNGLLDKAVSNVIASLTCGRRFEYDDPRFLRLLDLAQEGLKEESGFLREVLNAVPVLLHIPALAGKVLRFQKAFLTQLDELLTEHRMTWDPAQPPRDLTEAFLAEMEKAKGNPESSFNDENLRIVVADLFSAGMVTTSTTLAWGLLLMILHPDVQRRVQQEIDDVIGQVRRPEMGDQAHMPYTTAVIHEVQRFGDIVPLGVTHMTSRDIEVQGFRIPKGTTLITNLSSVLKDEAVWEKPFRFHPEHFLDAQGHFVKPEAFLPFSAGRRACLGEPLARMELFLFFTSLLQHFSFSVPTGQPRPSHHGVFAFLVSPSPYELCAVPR

[21] = target: T3, Cytochrome P450 1A2 (Homo sapiens, UniProt P05177);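 further: PubChem cytochrome P450 panel assay, CYP1A2 panel member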
T3 sequence (P05177 whole entry): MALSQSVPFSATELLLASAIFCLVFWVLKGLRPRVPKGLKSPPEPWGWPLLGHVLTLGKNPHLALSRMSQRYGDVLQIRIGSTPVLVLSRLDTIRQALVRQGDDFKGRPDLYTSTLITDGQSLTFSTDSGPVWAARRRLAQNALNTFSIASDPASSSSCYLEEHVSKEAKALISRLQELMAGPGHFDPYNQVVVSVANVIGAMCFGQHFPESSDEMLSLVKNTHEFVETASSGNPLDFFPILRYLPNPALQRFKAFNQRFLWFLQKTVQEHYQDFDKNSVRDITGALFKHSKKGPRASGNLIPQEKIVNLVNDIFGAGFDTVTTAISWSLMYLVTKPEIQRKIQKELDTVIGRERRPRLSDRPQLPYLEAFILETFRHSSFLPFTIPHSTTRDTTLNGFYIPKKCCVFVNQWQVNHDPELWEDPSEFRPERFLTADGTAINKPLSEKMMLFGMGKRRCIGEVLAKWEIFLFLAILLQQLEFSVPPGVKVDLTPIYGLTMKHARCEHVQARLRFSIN

[22] = target: Cytochrome P450 3A4 (Homo sapiens, UniProt P08684);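 further: CYP3A4 tested as one member of a cytochrome P450 panel screen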
Cytochrome P450 3A4, sequence (P08684 whole entry): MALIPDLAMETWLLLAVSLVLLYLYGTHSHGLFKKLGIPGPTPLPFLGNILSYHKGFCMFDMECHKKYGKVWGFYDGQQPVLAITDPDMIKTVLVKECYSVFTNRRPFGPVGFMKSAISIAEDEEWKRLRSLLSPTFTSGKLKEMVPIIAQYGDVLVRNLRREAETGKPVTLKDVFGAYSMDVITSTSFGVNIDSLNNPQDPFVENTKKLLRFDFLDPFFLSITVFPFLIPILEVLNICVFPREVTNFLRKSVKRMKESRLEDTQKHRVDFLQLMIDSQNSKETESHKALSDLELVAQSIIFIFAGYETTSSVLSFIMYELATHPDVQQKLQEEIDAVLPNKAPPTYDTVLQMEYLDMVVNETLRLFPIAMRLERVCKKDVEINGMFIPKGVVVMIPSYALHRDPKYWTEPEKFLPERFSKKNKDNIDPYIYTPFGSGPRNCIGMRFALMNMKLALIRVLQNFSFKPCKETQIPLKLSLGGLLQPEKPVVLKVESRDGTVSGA

[23] = target: Cytochrome P450 2C19 (Homo sapiens, UniProt P33261); assay: Cytochrome panel assay with activity outcomes. Panel member name: p450-cyp2c19 Compounds with AC50 equal or less than 10 uM are considered active; type: functional; conditions: read-out: AC50
Cytochrome P450 2C19, sequence (P33261 whole entry): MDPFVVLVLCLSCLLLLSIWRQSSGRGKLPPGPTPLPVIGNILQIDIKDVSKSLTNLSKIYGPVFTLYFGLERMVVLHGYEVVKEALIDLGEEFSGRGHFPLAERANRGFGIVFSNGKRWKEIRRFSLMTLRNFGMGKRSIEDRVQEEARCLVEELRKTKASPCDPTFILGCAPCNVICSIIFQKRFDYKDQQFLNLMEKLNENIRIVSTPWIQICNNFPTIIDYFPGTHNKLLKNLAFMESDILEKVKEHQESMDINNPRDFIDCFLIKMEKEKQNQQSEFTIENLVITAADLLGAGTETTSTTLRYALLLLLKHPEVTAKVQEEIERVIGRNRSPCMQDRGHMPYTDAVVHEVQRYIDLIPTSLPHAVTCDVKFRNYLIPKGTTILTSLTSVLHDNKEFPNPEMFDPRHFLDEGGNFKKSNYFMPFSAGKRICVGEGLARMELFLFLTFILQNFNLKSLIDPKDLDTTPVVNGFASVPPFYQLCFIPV

[24] = tested on: HEK293; assay: EBV LMP1 TES2 canonical NF-kB signalling blockers – cell-based, HEK293, luciferase, cherry-pick, dose response (AID 588343); type: functional; conditions: Homo sapiens
[25] = luciferase reporter signal suppression in cells – H4 neuroglioma cells, luminescence, dose response (AID 1990); type: functional, cell-based
[26] = Luminescence Cell-Based Dose Response HTS to Identify Inhibitors of 5'UTR Stem-Loop Driven Prion Protein mRNA Translation in H4 Neuroglioblastoma Cells. [Related pubchem assays: 1827 (Project Summary), 1813 (Primary HTS)]; type: functional
[27] = alpha-synuclein stem-loop luciferase translation blockers – H4 neuroglioma cells, luminescence, confirmation (AID 1988); type: functional, cell-based
[28] = target: Luciferin 4-monooxygenase (Photinus pyralis, UniProt P08659); assay: inhibition of purified Photinus pyralis luciferase – biochemical, luminescence, dose response (AID 1891)
Luciferin 4-monooxygenase, sequence (P08659 whole entry): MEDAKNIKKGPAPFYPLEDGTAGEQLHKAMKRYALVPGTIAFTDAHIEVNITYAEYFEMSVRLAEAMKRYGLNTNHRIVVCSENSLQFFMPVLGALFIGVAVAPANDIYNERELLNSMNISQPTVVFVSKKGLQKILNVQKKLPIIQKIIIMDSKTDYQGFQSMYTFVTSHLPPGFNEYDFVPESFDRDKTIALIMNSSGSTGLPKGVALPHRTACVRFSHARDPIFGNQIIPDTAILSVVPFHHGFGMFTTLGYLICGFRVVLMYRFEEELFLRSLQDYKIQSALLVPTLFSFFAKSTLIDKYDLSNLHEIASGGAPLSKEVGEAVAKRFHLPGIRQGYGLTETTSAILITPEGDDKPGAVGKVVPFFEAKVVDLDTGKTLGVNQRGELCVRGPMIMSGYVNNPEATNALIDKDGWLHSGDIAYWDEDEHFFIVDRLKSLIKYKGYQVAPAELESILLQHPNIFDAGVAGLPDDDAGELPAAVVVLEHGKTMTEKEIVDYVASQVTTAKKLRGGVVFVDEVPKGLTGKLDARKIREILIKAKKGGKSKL

[29] = Luminescence Cell-Based Dose Confirmation HTS to Identify Inhibitors of Platelet Dense Granule Release. [Related pubchem assays: 1663 (Primary HTS), 1678 (Summary of Project)]; type: functional
[30] = target: Cytochrome P450 2C9 (Homo sapiens, UniProt P11712)
Cytochrome P450 2C9, sequence (P11712 whole entry): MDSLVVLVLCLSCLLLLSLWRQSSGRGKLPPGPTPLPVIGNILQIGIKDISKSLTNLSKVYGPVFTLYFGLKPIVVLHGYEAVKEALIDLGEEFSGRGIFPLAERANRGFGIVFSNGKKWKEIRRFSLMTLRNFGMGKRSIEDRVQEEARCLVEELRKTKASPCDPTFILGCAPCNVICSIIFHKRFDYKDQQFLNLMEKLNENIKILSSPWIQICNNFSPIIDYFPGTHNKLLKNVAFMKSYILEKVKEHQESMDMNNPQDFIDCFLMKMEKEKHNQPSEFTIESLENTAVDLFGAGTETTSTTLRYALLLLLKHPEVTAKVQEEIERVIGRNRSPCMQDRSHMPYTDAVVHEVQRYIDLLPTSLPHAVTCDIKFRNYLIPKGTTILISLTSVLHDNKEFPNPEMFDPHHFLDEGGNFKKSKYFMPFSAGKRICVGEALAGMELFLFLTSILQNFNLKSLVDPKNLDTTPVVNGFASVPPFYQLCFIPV

## O=NN(CCF)C(=O)NC1CC2CCC1C2 (configuration not stated)
[1]
  GI50: 24.5 µM (inactive)
[2]
  GI50: > 100 µM (inactive)
[3]
  GI50: 15.8 µM (inactive)

## Cc1ccc(S(=O)(=O)N2CCC(=O)N(CCOCc3ccc(C(F)(F)F)cc3)CC2)cc1
[4]
  AC50: 5.79 µM (active)
[5]
  AC50: 3.68 µM (active)
[6]
  AC50: 14.6 µM (active)
[7]
  AC50: 6.53 µM (active)

## CCCNc1nc(Cl)nc(NCc2cccnc2)n1
[8]
  AC50: 4.26 µM (active)

## O=C(NNC(=O)c1cccnc1SCc1cccc([N+](=O)[O-])c1)c1ccccn1
[9]
  EC50: 27.8 µM (active)
[10]
  EC50: 0.994 µM (active)
[11]
  EC50: > 350 µM (not active)
[12]
  EC50: 1.65 µM (active)
[13]
  AC50: 1.9 µM (active)
[14]
  AC50: 7.84 µM (active)
[15]
  AC50: 1.32 µM (active)

## CCC/C=C(\CCC)C(NS(=O)(=O)c1ccc(C(F)(F)F)cc1)c1ccccc1 (configuration not stated)
[16]
  EC50: 2.73 µM (active)
[17]
  EC50: 2.24 µM (active)
[18]
  EC50: 22.5 µM (active)
[19]
  AC50: 3.36 µM (active)
[20]
  AC50: 20 µM (inconclusive)

## CCC(C)NC(=O)Cn1cnc2sc(C)cc2c1=O (configuration not stated)
[20]
  AC50: 25.1 µM (inconclusive)
[21]
  AC50: 6.31 µM (inconclusive)

## O=C(c1ccc2ncsc2c1)N1CCN(c2nc3ccccc3s2)CC1
[4]
  AC50: 4.18 µM (active)
[5]
  AC50: 8.38 µM (active)
[6]
  AC50: 3.19 µM (active)
[7]
  AC50: 8.65 µM (active)

## Cn1cc([N+](=O)[O-])c(C(=O)Nc2sc3c(c2C#N)CCC3)n1
[13]
  AC50: 0.88 µM (active)
[14]
  AC50: 8.93 µM (active)

## CCNc1ncc2nc(-c3ccc(F)cc3)c(=O)n(-c3ccc(OC)cc3)c2n1
[20]
  AC50: 0.158 µM (inconclusive)
[21]
  AC50: 6.31 µM (inconclusive)
[22]
  AC50: 20 µM (inconclusive)

## CC1(C)CC2(CCO1)OC(=O)CC2C(=O)NCCc1ccccc1 (configuration not stated)
[23]
  AC50: 25.1 µM (inconclusive)
[20]
  AC50: 22.4 µM (inconclusive)
[22]
  AC50: 28.2 µM (inconclusive)

## CCCCN1C2CCCC1CC(NC(=O)C1CCCCC1)C2 (configuration not stated)
[24]
  AC50: 237 µM (active)

## CCN(C[C@H]1N[C@@](C)(C(=O)OC)[C@H]2C(=O)N(Cc3ccccc3)C(=O)[C@@H]12)S(=O)(=O)c1ccc(C)cc1
[4]
  AC50: 5.73 µM (active)
[5]
  AC50: 15 µM (active)
[6]
  AC50: 21.4 µM (active)
[7]
  AC50: 69.3 µM (active)

## O=C(Cn1ccnc1[N+](=O)[O-])N(CCO)CCO
[1]
  GI50: > 1250 µM (inactive)
[2]
  GI50: > 1250 µM (inactive)
[3]
  GI50: > 1250 µM (inactive)

## C[C@H]1CN([C@@H](C)CO)C(=O)Cc2cc(NC(=O)Cc3ccccc3)ccc2O[C@H]1CN(C)S(=O)(=O)c1cccs1
[4]
  AC50: 1.48 µM (active)
[5]
  AC50: 2.26 µM (active)
[6]
  AC50: 2.4 µM (active)
[7]
  AC50: 3.35 µM (active)

## CCN1CCN(Cc2ccc(NC(=O)c3ccc(C)c(NC(=O)c4ccno4)c3)cc2C(F)(F)F)CC1
[24]
  AC50: 0.0518 µM (active)

## CCOC(=O)C1=C(C(C)=O)CSC(c2ccccc2)=N1
[1]
  GI50: 68.5 µM (inactive)
[2]
  GI50: > 100 µM (inactive)
[3]
  GI50: > 100 µM (inactive)

## O=C(c1ccccc1O)c1cc(-c2ncc3c(=O)c4ccccc4oc3n2)c(-c2ccccc2O)[nH]c1=O
[1]
  GI50: 22.4 µM (inactive)
[2]
  GI50: 17.5 µM (inactive)
[3]
  GI50: 19.7 µM (inactive)

## COc1cccc(-c2nc3c(C(=O)NCCN(C)C)cccc3[nH]2)c1
[1]
  GI50: 13.7 µM (inactive)
[2]
  GI50: 12.4 µM (inactive)
[3]
  GI50: 4.45 µM (inactive)

## COC(=O)C(C/C=C(\C)c1ccccc1)C(C)=O (configuration not stated)
[1]
  GI50: 29 µM (inactive)
[2]
  GI50: 45.2 µM (inactive)
[3]
  GI50: 27.2 µM (inactive)

## COC(=O)[C@]1(c2ccc(N(C)C)cc2OC)C[C@@H]2CCCN(CCc3c1[nH]c1ccccc31)C2
[1]
  GI50: 18.1 µM (inactive)
[2]
  GI50: 17.4 µM (inactive)
[3]
  GI50: 16.7 µM (inactive)

## COc1ccc(OC)c(CN2C(=O)c3ccccc3C2c2nnnn2-c2c(C)cccc2C)c1 (configuration not stated)
[4]
  AC50: 4.69 µM (active)
[5]
  AC50: 3.93 µM (active)
[6]
  AC50: 19 µM (active)

## COc1cc(C2c3cc4c(cc3[C@@H](Nc3ccc(F)cc3)C3COC(=O)[C@H]23)OCO4)cc(OC)c1O (some centres not stated)
[1]
  GI50: 0.09 µM (active)
[3]
  GI50: < 0.01 µM (active)

## Cc1ccccc1CN1CC2=C(CCN(Cc3ccccc3)C2=O)N2CCN=C12
[13]
  AC50: 2.41 µM (active)
[14]
  AC50: 3.31 µM (active)
[15]
  AC50: 29.6 µM (active)

## CC(C)(C)n1nc(-c2ccc(Cl)cc2)c2c(N)ncnc21
[25]
  EC50: 7.3 µM (active)
[26]
  EC50: 12.4 µM (active)
[27]
  EC50: 6.21 µM (active)
[28]
  EC50: 23.3 µM (active)
[29]
  EC50: 5.58 µM (active)
[24]
  AC50: 12.2 µM (active)
[30]
  AC50: 7.08 µM (inconclusive)
